Data on eight compounds can be found in ChEMBL document CHEMBL5620358, “Proteolysis-targeting chimeras in biotherapeutics: Current trends and future applications” (Eur J Med Chem, 2023).

pIC50: −log10 of the molar value.

Experiment [1] has as its target Protein cereblon/Macrophage migration inhibitory factor (Homo sapiens, UniProt P14174+Q96SW2). The experiment can be described thus: PROTAC activity at E3 ubiquitin ligase/MIF in human A549 cells assessed as induction of MIF degradation. The class given is cell-based.
The subject of another experiment is MCF7. The experiment can be described thus: Cytotoxicity against human MCF7 cells assessed as inhibition of cell proliferation measured after 72 hrs by MTT assay. The format is functional, cell-based. The following applies: MCF7, 72 h. A general note: Formazan colour is commonly taken as a measure of viable cells.
Experiment [2] in a line: Induction of AR degradation in castrated mouse model xenografted with human VCaP cells at 1 mg/kg. The class given is functional. In general terms: A xenograft is tissue or cells of one species grown in another, often human tumour cells in immunodeficient mice.
The target of experiment [3] is von Hippel-Lindau disease tumor suppressor/Haloalkane dehalogenase (Rhodococcus sp, UniProt P40337+P0A3G3). The experiment can be described thus: PROTAC activity at VHL/HaloTag7-GFP fusion protein (unknown origin) assessed as induction of fusion protein degradation.
For experiment [4], the target named is von Hippel-Lindau disease tumor suppressor/Haloalkane dehalogenase (Rhodococcus sp) (UniProt P40337+P0A3G3). The experiment can be described thus: PROTAC activity at VHL/HaloTag7-GFP fusion protein (unknown origin) assessed as induction of fusion protein degradation relative to control.
Experiment [5] in a line: Antiproliferative activity against human TNBC cells assessed as inhibition of cell growth. The format is functional, Breast carcinoma cell.
Experiment [6] concerns the target T1, Protein cereblon/Cyclin-dependent kinase 9 (Homo sapiens) (UniProt P50750+Q96SW2). The experiment can be described thus: PROTAC activity at E3 ubiquitin ligase/CDK9 in human MOLT-4 cells assessed as induction of CDK9 degradation at 250 nM by immunoblot analysis. The class given is cell-based. A general note: A western blot detects proteins with antibodies after separation by electrophoresis.

Experiment [7] addresses Protein cereblon/Bromodomain-containing protein 9 (Homo sapiens, UniProt Q9H8M2+Q96SW2). The experiment can be described thus: PROTAC activity at CRBN/BRD9 (unknown origin) assessed as induction of BRD9 degradation. The class given is protein assay.
For experiment [8], the target named is T1, Protein cereblon/Cyclin-dependent kinase 9 (Homo sapiens). The experiment can be described thus: PROTAC activity at E3 ubiquitin ligase/CDK9 in human HCT-116 cells assessed as induction of CDK9 degradation at 20 uM measured after 6 hrs by western blot analysis. The format is cell-based.

One may read the DC50 as the concentration at which degradation of the target reaches its halfway point. Consider `O=C1CCC(N2C(=O)c3cccc(NCCCCCCCC(=O)Nc4ccc(N5Cc6ccc(O)cc6OC5=O)cc4)c3C2=O)C(=O)N1` (centres undefined), for which the DC50 in experiment [1] was 100 nM. In general, pIC50 refers to −log10 of the IC50, conventionally taken in molar units. On to `Nc1cccc2c1C(=O)N(C1CCC(=O)NC1=O)C2=O` (centres undefined) [POMALIDOMIDE], for which the pIC50 in the experiment on MCF7 was 4.77.

Consider `N#Cc1ccc(O[C@H]2CC[C@H](NC(=O)c3ccc(N4CCC(CN5CCN(c6cc7c(cc6F)C(=O)N(C6CCC(=O)NC6=O)C7=O)CC5)CC4)nn3)CC2)cc1Cl` (some centres undefined) [BAVDEGALUTAMIDE], for which the Activity in [2] was determined as 90%.

Consider `Cc1ncsc1-c1ccc(CNC(=O)[C@@H]2C[C@@H](O)CN2C(=O)[C@H](C(C)C)N2Cc3ccccc3C2=O)c(OCCOCCOCCOCCCCCCCl)c1`, for which the DC50 in experiment [3] turned out to be 19 nM. Moreover, the Activity in experiment [4] came to 90%. On to `Nc1c(C(=O)Nc2ccc(F)cc2)sc2nc(-c3cccs3)cc(C(F)(F)F)c12`, for which the “inhibition (INH)” value in [5] came to 47.8%. Turning to `CC(C)(C)c1cnc(CSc2cnc(NC(=O)C3CCN(CC(=O)NCCOCCOCCOCCNc4cccc5c4C(=O)N(C4CCC(=O)NC4=O)C5=O)CC3)s2)o1` (centres undefined), in experiment [6], the Activity is 99%. Turning to `COc1cc(-c2cn(C)c(=O)c(C)c2C)cc(OC)c1CN1CC[C@H](N2CCN(c3ccc(N[C@H]4CCC(=O)NC4=O)cc3F)CC2)C(F)(F)C1` [SENDEGOBRESIB], in [7], the 50% degradation concentration (DC50) was 2.7 nM. Take `O=C1CCC(N2C(=O)c3cccc(OCCCCCOc4ccc(CC(=O)Nc5cc(C6CCC6)[nH]n5)cc4)c3C2=O)C(=O)N1` (centres undefined): the Activity in experiment [8] worked out at 65%.
